Reference: US20170121752A1, “DETECTION OF ACRYLIC ACID” (AGENCY FOR SCIENCE, TECHNOLOGY AND RESEARCH, priority 2014, published 2017)
“Also recorded” adds a separate entry of the source. One block for each compound: values may come before it.

How the values were obtained:
[1] = system: C. propionicum; assay: Fluorescence signal of bacterial cell lysates grown with 3-butynoic acid; format: cell-based, Clostridium propionicum; settings: media with 5 and 10 mM 3-butynoic acid, lysates treated with compound 4
Experimental: The cell lysates were treated with […] of diaryltetrazole compound 4 for fluorescence detection. […] 3-Butynoic acid, an acyl CoA dehydrogenase inhibitor, may be capable of promoting accumulation of acrylyl CoA in cells. In C. propionicum, acrylyl CoA is normally converted to propionyl CoA. However, in the presence of 3-butynoic acid, this reaction is inhibited. […] C. propionicum naturally produces acrylic acid but E. Coli. may not naturally produce acrylic acid.

[2] = Fluorescence assay of the photoactivated reaction between diaryltetrazole and acrylic acid; settings: for λem,max / λex,max: 100 μM compound reacted with acrylic acid; for λem,max / λex,max / Fold increase in fluorescence 10 mM / Fold increase in fluorescence 100 μM: photoirradiation 1 minute at 302 nm; for Fold increase in fluorescence 10 mM / Fold increase in fluorescence 100 μM: 100 μM compound; for Fold increase in fluorescence 10 mM: 10 mM acrylic acid; for fluorescence increases above the background: reacted with acrylic acid, summary of Table 1; for Fold increase in fluorescence 100 μM / pH of signal detection peak: 100 μM acrylic acid
Experimental: A solution containing the diaryltetrazole (0.022 mmol) and acrylic acid (0.02 to 0.050 mmol) was irradiated with a hand-held 302-nm UV lamp for 1 minute. Experiments were performed in a black 96-well plate with a total reaction volume of 100 The maximum excitation wavelengths indicated in Table 1 were used for each of the scans. The fluorescence emission spectrums of the reaction are shown in FIG. 1a to if using 10 μM of acrylic acid. The spectra for control experiments where either of the reactants was omitted have also been depicted in each of FIGS. 1a to 1f.
As mentioned earlier, the lower limit of detection of acrylic acid for compound 4 was 500 nM of acrylic acid upon a 1 minute photoactivation period with UV light at 302 nm. […]
As described above, compound 4 was used in further experiments to detect acrylic acid. The reaction between compound 4 and acrylic acid was carried out in water with a photoactivation time of 1 minute at 302 nm. Using 100 μM of 4, acrylic acid concentrations from 1 μM to 100 μM were readily detectable with a fluorescence microplate reader (see FIG. 3 and example 9).

[3] = Reaction monitoring of photoactivated cycloaddition using HPLC and fluorescence
Experimental: 10 mM of compound 4 was dissolved in dichloromethane and methanol (1:1). A separate solution of 10 mM of acrylic acid was dissolved in methanol. 10 μL of 10 mM of compound 4 and 10 μL of 10 mM of acrylic acid were then dissolved in 80 μL of methanol. After vigorous stirring, the mixture was irradiated with a 302 nm UV lamp for 0 seconds, 15 seconds, 30 seconds, 45 seconds, 60 seconds, 90 seconds and 120 seconds, respectively. An aliquot (10 μL) of reaction solution from each sample was withdrawn and immediately injected in the HPLC column. Compound 4 (denoted as A) and the pyrazoline product 4P (denoted as B) in each sample was monitored by UV absorbance at 254 nm and 370 nm. A linear gradient of 5 to 90% MeOH was applied after 3 minutes for 10 minutes, which is then kept constant for 10 minutes before a 7 minutes linear declining gradient of 90 to 5% MeOH. Compound 4 and product 4P were eluted at about 13.4 minutes and 12.4 minutes respectively.
The kinetic reaction studies involving diaryltetrazole compound 4 and acrylic acid were carried out by monitoring with HPLC from 0 to 120 seconds as described above.
Fluorescence turn on of the reaction mixture occurred after 15 seconds. The left vial to the right vial are labelled as no UV activation, 15 seconds, 30 seconds, 45 seconds, 60 seconds, 90 seconds, 120 seconds of UV activation, respectively. […]

[4] = Fluorescence assay of the photoactivated reaction between diaryltetrazole and acrylamide
Experimental: To substantiate the above, the reaction between compound 4 and acrylic acid (AA), and the reaction between compound 4 and acrylamide (a derivative), were carried out in buffers from pH 1 to pH 13. […] Deprotonation of the chromophore appears to result in higher fluorescence intensity of the pyrazoline product.
100 μM acrylic acid and 2 different grades of acrylamides, particularly gel electrophoresis acrylamide (GE) and molecular biology acrylamide (MB), were tested with 100 μM of compound 4 over the entire pH range. The reaction between compound 4 and acrylic acid/acrylamide was carried out in a phosphate buffer (having different pH as indicated) in 10% DMSO with a photoactivation time of 1 minute at 302 nm. Fluorescence was measured using a fluorescence microplate reader. […] Clearly, the detection method of the present disclosure is capable of detecting acrylate derivatives.
Compound 4 was also used to detect acrylamide in vitro. The reaction between compound 4 and acrylamide was carried out in phosphate buffer at pH 9.0 with 10% DMSO with a photoactivation time of 1 minute at 302 nm. Using 100 μM of compound 4, acrylamide concentrations from 1 μM to 100 μM were readily detectable with a fluorescence microplate reader as shown in FIG. 18.
10% (v/v) of different oils in a phosphate buffer of pH 9.0 containing 1% Tween-20 were spiked in with 10 mM Acrylamide (gel electrophoresis grade). Controls were uncontaminated. Reactions of these mixtures were set up with 100 μM of compound 4 with a photoactivation time of 1 minute at 302 nm. Fluorescence was measured using a fluorescence microplate reader.
100 μM of acrylic acid and acrylamide (gel electrophoresis grade) were tested with 100 μM of compound 4 over a pH range of 7 to 13. The reaction between compound 4 and acrylic acid/acrylamide was carried out in a phosphate buffer (having different indicated pH) in 10% DMSO with a photoactivation time of 1 minute at 302 nm. Fluorescence was measured using a fluorescence microplate reader.

[5] = system: E. coli cells; assay: In vivo detection of acrylic acid in E. coli cells by fluorescence microscopy; format: cell-based; settings: 100 μM acrylic acid 10 minutes, 100 μM compound 4 30 min, UV 302 nm 1 minute
Experimental: The use of compound 4 as an acrylic acid sensor in vivo was tested in this example. E. coli cells were grown to late log phase (OD600˜1.0) and treated with 100 μM acrylic acid for 10 minutes at 37° C. Upon washing, cells were treated with 100 μM of compound 4 and incubated at 37° C. for 30 min in the dark. The cells were washed, pelleted, suspended in 1×PBS and mounted on a slide. They were then exposed to UV light at 302 nm for 1 minute and imaged under a fluorescence microscope (using DAPI filters) after about 2 hours of recovery at room temperature. Control cells include untreated cells; cells treated with either acrylic acid or compound 4 alone and without UV treatment.

[6] = system: C. propionicum cells; assay: In vivo detection of acrylic acid in C. propionicum cells by fluorescence microscopy and lysate fluorescence; format: cell-based, Clostridium propionicum; settings: 100 μM compound 4, 30 min, UV 302 nm 1 minute, with or without 100 μM acrylic acid added
Experimental: To test the diaryltetrazole sensor for in vivo production of acrylic acid, we applied compound 4 to C. propionicum cells. C. propionicum cells were grown to late log phase (OD600˜1.0) in an anoxia chamber and treated with 100 μM of compound 4. After incubating at 37° C. for 30 min in the dark, cells were washed, pelleted, suspended in PBS buffer and mounted on a slide. Cells were exposed to 302 nm UV light for 1 minute and imaged under a fluorescence microscope (using DAPI filters) after about 2 hours of recovery at room temperature. Control cells include cells treated with acrylic acid and compound 4 to observe positive fluorescence; untreated cells and cells treated with acrylic acid alone and without UV treatment. […] This indicates the production of acrylic acid intermediates in these cells and the diaryltetrazole probe is capable of detecting them.

Compound: C#CCC(=O)O [3-butynoic acid, 3-Butynoic acid]
fluorescence signal of cell lysates [1]: fluorescence signal is higher

Compound: COC(=O)c1ccc(-c2nnn(-c3ccc(F)cc3F)n2)cc1 [Compound 3]
λem,max [2]: 482 nm
λex,max [2]: 380 nm
Fold increase in fluorescence 100 μM [2]: 1.12
Fold increase in fluorescence 10 mM [2]: 3.17
fluorescence increases above the background [2]: around 3 fold

Compound: O=C(O)c1ccc(-c2nnn(-c3ccccc3)n2)cc1 [Compound 4]
pH of signal detection peak ([2]; 100 μM compound 4, entire pH range, phosphate buffer 10% DMSO (FIG. 17)): 11.0 pH
pH of signal detection peak ([2]; 100 μM compound 4, pH range 7 to 13 (FIG. 21)): 10.0 pH
fluorescence detection of acrylic acid in LB media and minimum media ([2]; 100 μM compound 4, 1 min photoactivation): readily detected before the completion of photoactivation
λem,max [2]: 520 nm
λex,max [2]: 380 nm
Fold increase in fluorescence 100 μM [2]: 132
Fold increase in fluorescence 10 mM [2]: 5.15
lower limit of detection of acrylic acid ([2]; 1 minute photoactivation with UV light at 302 nm): 500 nM
Fold increase in fluorescence ([2]; Table 2: 100 μM compound 4, 500 nM acrylic acid): 1.12
Fold increase in fluorescence ([2]; Table 2: 100 μM compound 4, 1 μM acrylic acid): 1.58
Fold increase in fluorescence ([2]; Table 2: 100 μM compound 4, 10 μM acrylic acid): 17
Fold increase in fluorescence ([2]; Table 2: 100 μM compound 4, 100 μM acrylic acid): 132
fluorescence of the probe alone (control experiments) ([2]; buffers pH 1 to pH 13, without analyte): not fluorescent at all pH tested
time to completion of the reaction with acrylic acid ([3]; HPLC monitoring, 302 nm UV, methanol): ≤ 90 s
time to fluorescence turn on of the reaction mixture ([3]; compound 4 and acrylic acid in methanol, UV activation): ≤ 15 s
pH of fluorescent peak ([4]; 100 μM acrylamide (gel electrophoresis grade), 100 μM compound 4, pH range 7 to 13 (FIG. 21)): 9.0 pH
pH of signal detection peak ([4]; 100 μM acrylamide, 100 μM compound 4, entire pH range, phosphate buffer 10% DMSO (FIG. 17)): 9.0 pH
detection of acrylamide in a complex organic/detergent mixture ([4]; 10% (v/v) oils, phosphate buffer pH 9.0, 1% Tween-20, 10 mM acrylamide, 100 μM compound 4): able to detect acrylamide in a complex organic/detergent mixture
fluorescence of bacterial cells [5]: only fluorescent in the presence of both acrylic acid and compound 4
fluorescence of cells [6]: cells were fluorescent

Compound: Cc1ccc(-c2nnn(-c3ccc(N)cc3)n2)cc1 [Compound 5]
fluorescence / reactivity towards acrylic acid ([2]; reaction with acrylic acid, photoactivation): No fluorescence; also recorded: unreactive towards acrylic acid, forming little or no fluorescent product

Compound: COc1ccc(-n2nnc(-c3ccc(C)cc3)n2)cc1 [Compound 6]
λex,max [2]: 371 nm
Fold increase in fluorescence 10 mM [2]: 3.87
fluorescence increases above the background [2]: around 3 fold

The next lines start with results.

λem,max [2]: 482 nm
λex,max [2]: 395 nm
Compound: COC(=O)c1ccc(-c2nnn(-c3ccccc3)n2)cc1 [Compound 1]
Fold increase in fluorescence 10 mM [2]: 3.23
fluorescence increases above the background [2]: around 3 fold

λem,max [2]: 487 nm
λex,max [2]: 392 nm
Compound: COC(=O)c1ccc(-c2nnn(-c3ccc(F)cc3)n2)cc1 [Compound 2]
Fold increase in fluorescence 100 μM [2]: 1.12
Fold increase in fluorescence 10 mM [2]: 3.38
fluorescence increases above the background [2]: around 3 fold

λex,max [2]: 368 nm
Compound: COc1ccc(-n2nnc(-c3ccccc3)n2)cc1 [Compound 7]
Fold increase in fluorescence 100 μM [2]: 1.43
Fold increase in fluorescence 10 mM [2]: 3.38
fluorescence increases above the background [2]: around 3 fold
